Data on nine compounds can be found in patent publication US20110059043A1, “CHEMICAL COMPOUNDS” (priority 2009, published 2011).

The subject of data set [1] is HCV replicon cells Huh 9B. As to the kind of experiment: HCV replicon assay (luciferase). It counts as cell-based. The note with it: Hepatitis C virus, reduction of replicon level by 50% vs untreated cell control, 72 h. The method, then:
(§1) HCV replicon cells Huh 9B (ReBlikon), containing the firefly luciferase—ubiquitin—neomycin phosphotransferase fusion protein and EMCV-IRES driven HCV polyprotein with cell culture adaptive mutations.
(§2) Cells were cultured at 37° C. in a 5% CO2 environment and split twice a week on seeding at 2×10^6 cells/flask on day 1 and 1×10^6 3 days later. G418 at 0.5 mg/ml was added to the culture medium but not the assay medium. The culture medium consisted of DMEM with […] glucose and glutamax (Gibco 61965-026) supplemented with 1×non-essential amino acids (Invitrogen 11140-035), penicillin (100 IU/ml)/streptomycin (100 μg/ml) (Invitrogen 15140-122), FCS (10%, 50 ml) and […] (Invitrogen 10131-027) & 10% Australian foetal calf serum (Invitrogen 10099-141).
(§3) A flask of cells was trypsinised and a cell count carried out. Cells were diluted to 100,000 cells/ml and 100 μl of this used to seed one opaque white 96-well plate (for the replicon assay) and one flat-bottomed clear plate (for the tox assay) for every five compounds to be tested for IC50. Wells G12 and H12 were left empty in the clear plate as the blank. Plates were then incubated at 37° C. in a 5% CO2 environment for 24 h.
(§4) On the following day compound dilutions are made up in medium at twice their desired final concentration in a clear round bottomed plate. All dilutions have a final DMSO concentration of 1%.
(§5) Once the dilution plate had been made up, controls and compounds were transferred to the assay plates (containing the cells) at 100 μl/well in duplicate wells. Exception: no compound was added to wells A1 and A2 of either plate and 100 μl of 1% DMSO was added to these instead. Plates were then incubated at 37° C. with 5% CO2 for 72 h.
At the end of the incubation time, the cells in the white plate were harvested by washing in PBS (100 μL per well) and gently tapping dry before addition of […] of lysis buffer (25 mM tris-phosphate, 8 mM MgCl2, 1 mM DTT, 1% Triton X-100, 15% glycerol. pH to 7.8 using KH2PO4 prior to triton and glycerol addition. Substrate was prepared: 23.5 mM beetle luciferin (Promega E1603), 26 mM ATP (Sigma O-2060) in […] Tris buffer pH 7.8 aliquoted and stored at −80° C. was thawed and diluted 1:50 in luciferase assay buffer (20 mM Tricine (Sigma T-0377), 1.07 mM magnesium carbonate hydroxide (Sigma M-5671), 0.1 mM EDTA (Sigma E-5134), 2.67 mM MgSO4(BDH 101514Y), 33.3 mM dithiothreitol (Sigma 150460) pH 7.8).
The M injector of the microplate luminometer (Lmax, Molecular Devices) was primed with 5×300 μl injections of the diluted substrate. After 5-60 min incubation in lysis buffer at room temperature, a plate was inserted into the luminometer and 100 μl luciferase assay reagent was added by the injector on the luminometer. The signal was measured using a 1 second delay followed by a 4 second measurement programme. The IC50, the concentration of the drug required for reducing the replicon level by 50% in relation to the untreated cell control value, can be calculated from the plot of the percentage reduction of the luciferase activity vs. drug concentration.

Data set [2] relates to HCV replicon cells Huh 9B. It counts as cell-based. The note with it: concentration reducing total cell area by 50% relative to DMSO controls; 72 h. The procedure:
as §1, §2, §3, §4, §5
The clear plate was stained with 100 μl 0.5% methylene blue in 50% ethanol at room temperature for lh, followed by solvation of the absorbed methylene blue in 100 μl per well of 1% lauroylsarcosine. Absorbance of the plate was measured on a microplate spectrophotometer (Molecular Devices) and the absorbance for each concentration of compound expressed as a proportion of the relative DMSO control. The TD50, the concentration of drug required to reduce the total cell area by 50% relative to the DMSO controls, can be calculated by plotting the absorbance at 620 nm minus background against drug concentration.

In data set [3] the target is T1, Recombinant HCV polymerase (BK strain) (Hepatitis C virus genotype 1b, UniProt P26663).
T1 construct: Recombinant HCV polymerase (BK strain) was expressed and purified from E. coli with a 21 amino acid C-terminal deletion; His6; made in house; host or cells: E. coli
Put plainly: HCV polymerase enzyme assay (radiometric [33P]-UTP incorporation). In kind it is biochemical, HCV 1b. The procedure:
Compounds were tested for inhibition of HCV polymerase using a radiometric [^33P]-UTP incorporation assay and a biotinylated U13:PolyA primer:template RNA substrate.
Recombinant HCV polymerase (BK strain) was expressed and purified from E. coli with a 21 amino acid C-terminal deletion and a His6-tag. The general assay buffer consisted of 20 mM Tris (pH 7.5), 25 mM KCl, 5 mM MgCl2, 3 mM DTT, 0.5 mg/ml BSA, 0.01% Tween20. The standard reaction, in 96 well plates, contained 10 μl of diluted compound, 50 μl of substrate and 40 μl of enzyme. Compounds, supplied as 10 mM stocks in DMSO, were diluted initially in neat DMSO, and subsequently buffer was added to give a DMSO concentration of 30%; 10 μl of this was added to the assay plate to give a final concentration in the 100 μl assay of 3% DMSO. The biotinylated U13:PolyA RNA substrate was pre-annealed with 40 μM 5′-biotinylated U13 (Dharmacon) and 213 μg/ml PolyA (Amersham Biosciences) in water incubated at 70° C. for 5 minutes before being cooled on ice. Substrate (50 μl) was added in buffer to give a final concentration in the 100 μl assay of 125 nM biotinylated U13:0.63 μg/ml PolyA and 200 nM UTP with 0.4 μCi [^33P]-UTP per well (Perkin Elmer). The reaction was initiated by the addition of 40 μl of enzyme in buffer to give 100 nM final concentration. The reaction was incubated at 25° C. for 100 minutes and then stopped by addition of 100 μl of 100 mM EDTA. The samples were then transferred to 96 well Streptavidin-coated FlashPlates (Perkin Elmer) and incubated at room temperature for ˜1 hour to allow binding to occur. The plates were then washed three times with phosphate-buffered saline containing 0.05% Tween20 in an automated plate washer to remove unincorporated [^33P]-UTP, and then counted in a
Each plate included a set of positive controls (no compound, maximum signal) and negative controls (no enzyme, minimum signal) and in each run at least one reference is compound was included to validate the assay. The IC50, concentration required to inhibit the enzyme activity by 50%, was calculated using an 8-point IC50 curve and fitted using the program XLfit (IDBS).

T1 sequence (P26663 2420-2989): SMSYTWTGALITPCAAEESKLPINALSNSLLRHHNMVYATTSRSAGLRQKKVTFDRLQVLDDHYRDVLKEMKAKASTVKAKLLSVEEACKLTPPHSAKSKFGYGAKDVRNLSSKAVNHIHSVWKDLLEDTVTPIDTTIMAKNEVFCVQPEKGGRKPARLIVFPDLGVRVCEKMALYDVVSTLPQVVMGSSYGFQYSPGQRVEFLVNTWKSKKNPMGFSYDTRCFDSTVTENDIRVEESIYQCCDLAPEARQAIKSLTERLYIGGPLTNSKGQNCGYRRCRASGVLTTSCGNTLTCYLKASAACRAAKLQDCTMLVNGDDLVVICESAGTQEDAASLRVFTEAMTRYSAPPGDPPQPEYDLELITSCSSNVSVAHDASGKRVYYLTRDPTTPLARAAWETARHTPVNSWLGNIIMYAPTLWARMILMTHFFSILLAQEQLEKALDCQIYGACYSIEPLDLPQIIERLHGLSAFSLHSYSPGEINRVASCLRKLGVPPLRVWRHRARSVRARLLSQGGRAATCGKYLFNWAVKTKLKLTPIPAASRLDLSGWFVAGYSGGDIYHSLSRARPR

Usually IC50 stands for the concentration that gives 50% inhibition. On to `CS(=O)(=O)NCCCOc1ccc(Cl)cc1C(=O)NC1N=C(c2c(Cl)cc(Cl)cc2Cl)c2ccccc2NC1=O` (stereo not drawn) [Example 27, 5-Chloro-2-(3-(methylsulfonamido)propoxy)-N-(2-oxo-5-(2,4,6-trichlorophenyl)-2,3-dihydro-1H-benzo[e][1,4]diazepin-3-yl)benzamide], for which the IC50 in data set [1] was determined as 1910 nM; in data set [3] it was 824 nM. Also, the “Replicon Assay Value TD50” value in data set [2] is 13.62 µM.

`CCS(=O)(=O)NCCCOc1ccc(Cl)cc1C(=O)NC1N=C(c2c(Cl)cc(Cl)cc2Cl)c2ccccc2NC1=O` (stereo not drawn) [Example 28, 5-chloro-2-(3-(ethylsulfonamido)propoxy)-N-(2-oxo-5-(2,4,6-trichlorophenyl)-2,3-dihydro-1H-benzo[e][1,4]diazepin-3-yl)benzamide]: the concentration for half-maximal inhibition (IC50) in data set [1] came out at 2130 nM; in data set [3] it was 850 nM. Moreover, the “Replicon Assay Value TD50” value in data set [2] was 8.004 µM.

In the case of `CS(=O)(=O)CCOc1ccc(Cl)cc1C(=O)NC1N=C(c2c(Cl)cc(Cl)cc2Cl)c2ccccc2NC1=O` (stereo not drawn) [Example 29, 5-Chloro-2-(2-(methylsulfonyl)ethoxy)-N-(2-oxo-5-(2,4,6-trichlorophenyl)-2,3-dihydro-1H-benzo[e][1,4]diazepin-3-yl)benzamide], the half-inhibitory concentration (IC50) came out at 2770 nM in data set [1] and 747 nM in data set [3]. Further, the “Replicon Assay Value TD50” value in data set [2] came out at 15.249 µM.

Turning to `COCCOc1ncc(F)cc1C(=O)NC1N=C(c2c(Cl)cc(Cl)cc2Cl)c2ccccc2NC1=O` (stereo not drawn) [Example 30, 5-Fluoro-2-(2-methoxyethoxy)-N-(2-oxo-5-(2,4,6-trichlorophenyl)-2,3-dihydro-1H-benzo[e][1,4]diazepin-3-yl)nicotinamide], the values for the IC50 in data set [1] and in data set [3] were 46.4 nM and 116 nM, respectively. Moreover, in data set [2], the “Replicon Assay Value TD50” value is more than 25 µM.

With `COCCOc1ncccc1C(=O)NC1N=C(c2c(Cl)cc(Cl)cc2Cl)c2ccccc2NC1=O` (stereo not drawn) [Example 31, 2-(2-Methoxyethoxy)-N-(2-oxo-5-(2,4,6-trichlorophenyl)-2,3-dihydro-1H-benzo[e][1,4]diazepin-3-yl)nicotinamide], the IC50 in data set [1] was 234 nM; in data set [3], 248 nM. The “Replicon Assay Value TD50” value in data set [2] is more than 25 µM.

`COCCOc1ncc(Cl)cc1C(=O)NC1N=C(c2c(Cl)cc(Cl)cc2Cl)c2ccccc2NC1=O` (stereo not drawn) [Example 32, 5-Chloro-2-(2-methoxyethoxy)-N-(2-oxo-5-(2,4,6-trichlorophenyl)-2,3-dihydro-1H-benzo[e][1,4]diazepin-3-yl)nicotinamide]: the IC50 in data set [1] was found to be 136 nM; in data set [3], 178 nM. Also, the “Replicon Assay Value TD50” value in data set [2] was more than 25 µM.

On to `COCCOc1ncc(Br)cc1C(=O)NC1N=C(c2c(Cl)cc(Cl)cc2Cl)c2ccccc2NC1=O` (stereo not drawn) [Example 33, 5-Bromo-2-(2-methoxyethoxy)-N-(2-oxo-5-(2,4,6-trichlorophenyl)-2,3-dihydro-1H-benzo[e][1,4]diazepin-3-yl)nicotinamide], for which the IC50 was found to be 487 nM in data set [1] and 265 nM in data set [3]. Moreover, the “Replicon Assay Value TD50” value in data set [2] is more than 25 µM.

Turning to `CCOCCOc1ncc(F)cc1C(=O)NC1N=C(c2c(Cl)cc(Cl)cc2Cl)c2ccccc2NC1=O` (stereo not drawn) [Example 34, 2-(2-Ethoxyethoxy)-5-fluoro-N-(2-oxo-5-(2,4,6-trichlorophenyl)-2,3-dihydro-1H-benzo[e][1,4]diazepin-3-yl)nicotinamide], the values for the IC50 in data set [1] and in data set [3] were 14.1 nM and 91 nM, respectively. Moreover, the “Replicon Assay Value TD50” value in data set [2] turned out to be 11.884 µM.

With `CO[C@@H](C)COc1ncc(F)cc1C(=O)NC1N=C(c2c(Cl)cc(Cl)cc2Cl)c2ccccc2NC1=O` (stereo partly drawn) [Example 35, 5-Fluoro-2-((S)-2-methoxypropoxy)-N-(2-oxo-5-(2,4,6-trichlorophenyl)-2,3-dihydro-1H-benzo[e][1,4]diazepin-3-yl)nicotinamide], the IC50 in data set [1] stood at 184 nM; in data set [3], 89.7 nM. The “Replicon Assay Value TD50” value in data set [2] turned out to be 24.614 µM.
